This note sets out measurements from patent US8987274B2, “Macrocycles that increase p53 activity and the uses thereof” (Merck Sharp & Dohme Corp, priority 2011, dated 2015).

Like-named read-outs stand apart in the source and are kept apart here.

The target in assay [1] is HDM2 protein (Homo sapiens, UniProt Q00987). Put plainly: fluorescence polarization screening assay (FP IC50). To be noted: first value of the cell (FP), read-out: FP/ SJSA IC50 (nM): FP IC50. Type of assay: binding. Here is the method: The compounds were evaluated to determine activity at the HDM2 protein by known methods such as the fluorescence polarization screening assay that measures the inhibitory concentration that achieves 50% of maximal activity (FP IC50) and the dissociation constant for inhibitor binding (FP Ki). [Zhang et al., J. Analytical Biochemistry 331: 138-146 (2004)].
For orientation: In fluorescence polarisation assays a small probe gives low polarisation when free and higher when bound to something large.

Assay [2] deals with SJSA. Put plainly: Cell Viability Assay (CellTiter-Glo, ATP quantitation). Type of assay: cell-based. Particulars: second value of the cell (SJSA cell viability, e.g. 72 hours), read-out: FP/ SJSA IC50 (nM): SJSA IC50. The procedure: Additionally, compounds were tested for activity at the HDM2 protein using the Cell Viability Assay, which measures the number of viable cells in culture after treatment with the inventive compound for a certain period of time e.g. 72 hours based on quantitation of the ATP present (Cell Viability. IC50). [CellTiter-Glo® Luminescent Cell Viability Assay from Promega].

HDM2 protein, sequence (Q00987 whole entry): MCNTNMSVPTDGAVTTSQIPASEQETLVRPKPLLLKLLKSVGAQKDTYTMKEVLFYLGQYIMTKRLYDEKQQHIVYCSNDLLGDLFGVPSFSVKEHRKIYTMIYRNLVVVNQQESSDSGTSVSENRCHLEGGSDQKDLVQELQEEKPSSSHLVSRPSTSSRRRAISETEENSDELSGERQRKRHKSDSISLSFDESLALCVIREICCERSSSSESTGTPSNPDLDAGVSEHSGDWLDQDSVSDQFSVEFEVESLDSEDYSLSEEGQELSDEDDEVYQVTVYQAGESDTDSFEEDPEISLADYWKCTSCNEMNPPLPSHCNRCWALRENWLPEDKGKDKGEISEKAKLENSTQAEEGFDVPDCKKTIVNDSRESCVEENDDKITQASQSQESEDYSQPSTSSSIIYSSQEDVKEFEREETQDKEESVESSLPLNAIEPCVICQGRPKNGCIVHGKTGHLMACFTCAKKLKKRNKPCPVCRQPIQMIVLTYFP

As for `O=C(O)CCCOc1ccccc1N1CCN(C(=O)[C@]2(Oc3csc(C(F)(F)F)c3)CCCN3C(=O)c4c(C(F)(F)F)ccnc4OCCC/C=C\C[C@@H]32)CC1` [Compound 8, 4-[2-[4-[[(11aR)- 7,8,11,11a,12,13,14,15- OCTAHYDRO-17-OXO-1- (TRIFLUOROMETHYL)- 12(S)-[[5- (TRIFLUOROMETHYL)-3- THIENYL]OXY]-6H,17H- DIPYRIDO[1,2-e:2′,3′-b][1,5] OXAAZACYCLODODECIN- 12-YL]CARBONYL]-1- PIPERAZINYL]PHENOXY] BUTANOIC ACID.], the figures for the IC50 in assay [1] (class symbol) and in assay [2] (class symbol) were 1 to 100 nM and 101 to 500 nM, respectively.

With `O=C1c2c(C(F)(F)F)ccnc2OCCCCCCC[C@H]2N1CCC[C@@]2(Oc1csc(C(F)(F)F)c1)C(=O)N1CCN(c2ccccc2OCCO)CC1` [Compound 7, 1-[[(12aR)-6,7,8,9,10,11,12,12a, 13,14,15,16-DODECAHYDRO- 18-OXO-1- (TRIFLUOROMETHYL)- 13(S)-[[5- (TRIFLUOROMETHYL)-3- THIENYL]OXY]-18H- DIPYRIDO[1,2-e:2′,3′-b][1,5] OXAAZACYCLOTRIDECIN- 13-YL]CARBONYL]-4- [2-(2- HYDROXYETHOXY) PHENYL]PIPERAZINE.], the IC50 in assay [1] (class symbol) was 1 to 100 nM.

`O=C1c2c(C(F)(F)F)ccnc2OCCCC[C@H]2N1CCC[C@@]2(Oc1csc(C(F)(F)F)c1)C(=O)N1CCN(c2ccccc2OCCO)CC1` [Compound 9, 1-[2-(2- HYDROXYETHOXY) PHENYL]-4-[[(9aR)- 7,8,9,9a,10,11,12,13- OCTAHYDRO-15-OXO-1- (TRIFLUOROMETHYL)- 10(S)-[[5- (TRIFLUOROMETHYL)- 3-THIENYL]OXY]-6H,15H- DIPYRIDO[1,2-e:2′,3′-b][1,5] OXAZECIN-10-YL] CARBONYL]PIPERAZINE.]: in assay [1] (class symbol), the IC50 was 1000 to 3000 nM.

For `O=C1c2c(C(F)(F)F)ccnc2OCCCCCC[C@H]2N1CCC[C@@]2(Oc1csc(C(F)(F)F)c1)C(=O)N1CCN(c2ccccc2OCCO)CC1` [Compound 5, 1-[[(11aR)- 7,8,9,10,11,11a,12,13,14,15- DECAHYDRO-17-OXO-1- (TRIFLUOROMETHYL)- 12-[[5- (TRIFLUOROMETHYL)-3- THIENYL]OXY]-6H,17H- DIPYDRIDO[1,2-e:2′,3′-b][1,5] OXAAZACYCLODODECIN- 12(S)-YL]CARBONYL]-4- [2-(2-HYDROXYETHOXY) PHENYL]PIPERAZINE.], the IC50 in assay [1] (class symbol) lay in the range of 1 to 100 nM; in assay [2] (class symbol) it was 1000 to 3000 nM.

For `COCCOc1ccccc1N1CCN(C(=O)[C@]2(Oc3csc(C(F)(F)F)c3)CCCN3C(=O)c4c(C(F)(F)F)ccnc4OCCCC/C=C/C[C@@H]32)CC1` [Compound 3, 1-[[(12aR)- 6,7,8,9,12,12a,13,14,15,16- DECAHYDRO-18-OXO-1- (TRIFLUOROMETHYL)- 13(S)-[[5- (TRIFLUOROMETHYL)-3- THIENYL]OXY]-18H- DIPYRIDO[1,2-e:2′,3′-b][1,5] OXAAZACYCLOTRIDECIN- 13-YL]CARBONYL]-4- [2-(2-METHOXYETHOXY) PHENYL]PIPERAZINE.], the IC50 in assay [1] (class symbol) is 1 to 100 nM; in assay [2] (class symbol), 1000 to 3000 nM.

Take `N#CC1(c2ccccc2OCCCC2(C(=O)O)CCC2)CCN(C(=O)[C@]2(Oc3csc(C(F)(F)F)c3)CCCN3C(=O)c4c(C(F)(F)F)ccnc4OCCCCCC[C@@H]32)CC1` [Compound 13, 1-[3-[2-[4-CYANO-1- [[(11a)-7,8,9,10,11,11a,12,13, 14,15-DECAHYDRO-17- OXO-1- (TRIFLUOROMETHYL)- 12(S)-[[5- (TRIFLUOROMETHYL)-3- THIENYL]OXY]-6H,17H- DIPYRIDO[1,2-e:2′,3′-b][1,5] OXAAZACYCLODODECIN- 12YL]CARBONYL]-4- PIPERIDINYL]PHENOXY] PROPYL]CYCLOBUTANE- CARBOXYLIC ACID.]: the IC50 in assay [1] (class symbol) lay within 1 to 100 nM; in assay [2] (class symbol), 101 to 500 nM.

In the case of `COCCOc1ccccc1N1CCN(C(=O)[C@]2(Oc3csc(C(F)(F)F)c3)CCCN3C(=O)c4c(C(F)(F)F)ccnc4OCC/C=C/C[C@@H]32)CC1` [Compound 1, 1-[2-(2- METHOXYETHOXY) PHENYL]-4-[[(10aR)- 6,7,10,10a,11,12,13,14- OCTAHYDRO-16- OXO-1- (TRIFLUOROMETHYL)- 11(S)-[[5- (TRIFLUOROMETHYL)- 3-THIENYL]OXY]-16H- DIPYRIDO[1,2-e:2′3′-b][1,5] OXOAAZACYCLOUNDECIN- 11-YL]CARBONYL] PIPERAZINE.], the IC50 in assay [1] (class symbol) fell in the range of 1 to 100 nM; in assay [2] (class symbol) it was 101 to 500 nM.

Consider `O=C1c2c(C(F)(F)F)ccnc2OCCC/C=C\C[C@H]2N1CCC[C@@]2(Oc1csc(C(F)(F)F)c1)C(=O)N1CCN(c2ccccc2OCCO)CC1` [Compound 4, 1-[2-(2- HYDROXYETHOXY) PHENYL]-4-[[(11aR)- 7,8,11,11a,12,13,14,15- OCTAHYDRO-17-OXO-1- (TRIFLUOROMETHYL)- 12(S)-[[5- (TRIFLUOROMETHYL)-3- THIENYL]OXY]-6H,17H- DIPYRIDO[1,2-e:2′,3′-b][1,5] OXAAZACYCLODODECIN- 12-YL]CARBONYL] PIPERAZINE.], for which the IC50 in assay [1] (class symbol) is 1 to 100 nM; in assay [2] (class symbol), 501 to 1000 nM.

On to `O=C1c2c(C(F)(F)F)ccnc2OCC/C=C/C[C@H]2N1CCC[C@@]2(Oc1csc(C(F)(F)F)c1)C(=O)N1CCN(c2ccccc2OCCO)CC1` [Compound 2, 1-[2-(2- HYDROXYETHOXY) PHENYL]-4-[[(10aR)- 6,7,10,10a,11,12,13,14- OCTAHYDRO-16- OXO-1- (TRIFLUOROMETHYL)- 11(S)-[[5- (TRIFLUOROMETHYL)-3- THIENYL]OXY]-16H- PYRIDO[1,2-e:2′,3′-b][1,5] OXAAZACYCLOUNDECIN- 11-YL]CARBONYL] PIPERAZINE.], for which the IC50 in assay [1] (class symbol) is 1 to 100 nM; in assay [2] (class symbol) it was 501 to 1000 nM.

In the case of `O=C1c2c(C(F)(F)F)ccnc2OCCCC/C=C\C[C@H]2N1CCC[C@@]2(Oc1csc(C(F)(F)F)c1)C(=O)N1CCN(c2ccccc2OCCO)CC1` [Compound 6, 1-[[(12aR)- 6,7,8,9,12,12a,13,14,15,16- DECAHYDRO-18-OXO-1- (TRIFLUOROMETHYL)- 13-[[5- (TRIFLUOROMETHYL)-3- THIENYL]OXY]-18H- DIPYDRIDO[1,2-e:2′,3′-b][1,5] OXAAZACYCLOTRIDECIN- 13(S)-YL]CARBONYL]-4- [2-(2-HYDROXYETHOXY) PHENYL]PIPERAZINE.], the values for the IC50 in assay [1] (number) and in assay [2] (number) were 20 nM and 642 nM, respectively.
